target: GST tagged truncated human mutant G2019S LRRK2 (Homo sapiens (Human), UniProt Q5S007, G2019S); assay: LRRK2 Km ATP LanthaScreen Assay; assay type: biochemical; details: G2019S LRRK2, 134 μM ATP (Km ATP), mean values
Method in brief: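 Enzyme (GST-tagged, truncated) was preincubated with compound for 15 min at RT in 50 mM Tris pH 8.5, 10 mM MgCl2, 0.01% Brij-35, 1 mM EGTA, 2 mM DTT and 0.05 mM orthovanadate. Fluorescein-LRRKtide and 134 μM ATP (Km) were then added for 90 min. EDTA and Tb-anti-pERM antibody stopped the reaction; the TR-FRET 520/495 ratio gave 4-parameter IC50s, reported as mean pIC50.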

Chain of GST tagged truncated human mutant G2019S LRRK2 (Q5S007 970-2527 G2019S): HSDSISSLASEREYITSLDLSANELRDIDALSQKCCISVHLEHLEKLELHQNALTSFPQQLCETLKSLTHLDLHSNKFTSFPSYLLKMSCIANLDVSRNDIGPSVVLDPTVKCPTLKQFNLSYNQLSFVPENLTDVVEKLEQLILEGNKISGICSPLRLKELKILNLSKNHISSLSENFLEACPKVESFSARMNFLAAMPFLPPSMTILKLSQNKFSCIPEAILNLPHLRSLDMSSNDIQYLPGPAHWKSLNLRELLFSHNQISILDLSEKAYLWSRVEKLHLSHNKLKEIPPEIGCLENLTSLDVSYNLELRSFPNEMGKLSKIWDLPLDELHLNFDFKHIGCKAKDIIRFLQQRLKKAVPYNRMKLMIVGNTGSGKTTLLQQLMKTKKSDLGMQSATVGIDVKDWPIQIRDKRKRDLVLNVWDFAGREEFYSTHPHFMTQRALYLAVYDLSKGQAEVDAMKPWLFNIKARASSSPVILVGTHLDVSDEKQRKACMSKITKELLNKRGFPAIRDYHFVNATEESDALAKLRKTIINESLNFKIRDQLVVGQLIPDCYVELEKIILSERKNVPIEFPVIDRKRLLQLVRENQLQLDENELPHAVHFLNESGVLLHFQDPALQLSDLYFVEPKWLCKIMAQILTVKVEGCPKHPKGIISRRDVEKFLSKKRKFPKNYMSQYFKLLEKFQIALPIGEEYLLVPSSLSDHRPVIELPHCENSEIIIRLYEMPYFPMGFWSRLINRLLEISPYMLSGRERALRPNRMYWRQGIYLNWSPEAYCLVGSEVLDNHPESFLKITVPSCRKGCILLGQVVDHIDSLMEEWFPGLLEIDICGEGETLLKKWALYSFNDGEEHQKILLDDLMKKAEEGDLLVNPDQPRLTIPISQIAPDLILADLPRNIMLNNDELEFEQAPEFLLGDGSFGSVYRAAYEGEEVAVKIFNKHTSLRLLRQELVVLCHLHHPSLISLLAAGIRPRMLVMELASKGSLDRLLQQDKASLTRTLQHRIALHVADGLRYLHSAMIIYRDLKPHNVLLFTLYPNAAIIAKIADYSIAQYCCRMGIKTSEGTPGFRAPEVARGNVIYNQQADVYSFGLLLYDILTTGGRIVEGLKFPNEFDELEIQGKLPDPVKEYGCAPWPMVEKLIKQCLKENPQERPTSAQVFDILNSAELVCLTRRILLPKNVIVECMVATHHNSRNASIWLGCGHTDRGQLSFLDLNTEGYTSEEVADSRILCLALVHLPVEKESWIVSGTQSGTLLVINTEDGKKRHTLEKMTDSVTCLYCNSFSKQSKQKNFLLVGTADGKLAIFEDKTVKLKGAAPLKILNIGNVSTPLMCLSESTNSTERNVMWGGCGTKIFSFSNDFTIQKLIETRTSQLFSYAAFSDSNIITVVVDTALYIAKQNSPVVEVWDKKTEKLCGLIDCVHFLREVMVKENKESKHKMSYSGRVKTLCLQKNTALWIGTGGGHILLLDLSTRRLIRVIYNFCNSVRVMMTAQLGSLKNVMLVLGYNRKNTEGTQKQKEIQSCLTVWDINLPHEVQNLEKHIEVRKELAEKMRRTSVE

In order of falling “LRRK2 pIC50” value:
1. N#Cc1cc2cnc(Nc3cnn(C4CC4(F)F)c3Cl)nc2cc1[C@@H]1CCN(C2COC2)C[C@H]1F (single isomer, unassigned) [Ex-6.4, (R)(3S,4S) or (S)(3S,4S) or (R)(3R,4R) or (S)(3R,4R) 2-((5-chloro-1-(2,2-difluorocyclopropyl)-1H-pyrazol-4-yl)amino)-7-(3-fluoro-1-(oxetan-3-yl)piperidin-4-yl)quinazoline-6-carbonitrile]  9.18
2. COC[C@H](O)CN1CCC(c2cc3nc(Nc4cnn(C5CC5)c4C)ncc3cc2Cl)CC1 [Ex-4.211, (2R)-1-(4-{6-chloro-2-[(1-cyclopropyl-5-methyl-1H-pyrazol-4-yl)amino]quinazolin-7-yl}piperidin-1-yl)-3-methoxypropan-2-ol]  9.15
3. Cc1cc2cnc(Nc3cnn(CC(C)(C)O)c3Cl)nc2cc1[C@H]1CCN(C2COC2)C[C@@H]1F (single isomer, unassigned) [Ex-4.83, (3S,4S) or (3R,4R) 1-[5-chloro-4-({7-[3-fluoro-1-(oxetan-3-yl)piperidin-4-yl]-6-methylquinazolin-2-yl}amino)-1H-pyrazol-1-yl]-2-methylpropan-2-ol]  9.14
4. [2H]C([2H])([2H])n1ncc(Nc2ncc3cc(Cl)c(C4CCN(C5(C)COC5)CC4)cc3n2)c1Cl [Ex-2.72, 6-chloro-N-(5-chloro-1-(methyl-d3)-1H-pyrazol-4-yl)-7-(1-(3-methyloxetan-3-yl)piperidin-4-yl)quinazolin-2-amine]  8.90
5. Cc1c(Nc2ncc3cc(Cl)c(C4CCN(C5COCC5C#N)CC4)cc3n2)cnn1C1CC1 (single isomer, unassigned) [Ex-2.49, (3S,4S) or (3R,4R) or (3S,4R) or (3R,4S) 4-(4-{6-chloro-2-[(1-cyclopropyl-5-methyl-1H-pyrazol-4-yl)amino]quinazolin-7-yl}piperidin-1-yl)oxolane-3-carbonitrile]  8.88
6. CC(n1ncc(Nc2ncc3cc(Cl)c([C@@H]4CCN(C)C[C@H]4F)cc3n2)c1Cl)C(C)(C)O (single isomer, unassigned) [Ex-4.60, (R)(3S,4S) or (R)(3R,4R) or (S)(3S,4S) or (S)(3R,4R) 3-(5-chloro-4-{[6-chloro-7-(3-fluoro-1-methylpiperidin-4-yl)quinazolin-2-yl]amino}-1H-pyrazol-1-yl)-2-methylbutan-2-ol]  8.69
7. Cc1nsc(Nc2ncc3cc(Cl)c([C@H]4CCN(C5CCOC5)C[C@@H]4F)cc3n2)c1Cl (single isomer, unassigned) [Ex-8.22, (3S,4S)(S) or (3S,4S)(R) or (3R,4R)(S) or (3R,4R)(R) 6-chloro-N-(4-chloro-3-methyl-1,2-thiazol-5-yl)-7-[3-fluoro-1-(oxolan-3-yl)piperidin-4-yl]quinazolin-2-amine]  8.68
8. Cc1cc(Nc2ncc3cc(C)c([C@H]4CCN([C@@H]5COC[C@@H]5O)C[C@@H]4F)cc3n2)n(C)n1 (single isomer, unassigned) [Ex-5.11, (3S,4S)(3S,4S) or (3S,4S)(3R,4R) or (3R,4R)(3S,4S) or (3R,4R)(3R,4R) 4-(4-{2-[(1,3-dimethyl-1H-pyrazol-5-yl)amino]-6-methylquinazolin-7-yl}-3-fluoropiperidin-1-yl)oxolan-3-ol]  8.57
9. Cc1c(Nc2ncc3cc(Cl)c(C4CCN(C5CCC(CC#N)C5)CC4)cc3n2)cnn1C1CC1 (single isomer, unassigned) [Ex-4.169, (1R,3R) or (1S,3R) or (1R,3S) or (1S,3S) [3-(4-{6-chloro-2-[(1-cyclopropyl-5-methyl-1H-pyrazol-4-yl)amino]quinazolin-7-yl}piperidin-1-yl)cyclopentyl]acetonitrile]  8.25
10. CO[C@@H]1COC[C@@H]1N1CC[C@@H](c2cc3nc(Nc4cnn(C5CC5(F)F)c4Cl)ncc3cc2C)[C@H](F)C1 (single isomer, unassigned) [Ex-4.246, (R)(3S,4S)(3S,4S) or (R)(3S,4S)(3R,4R) or (R)(3R,4R)(3S,4S) or (R)(3R,4R)(3R,4R) or (S)(3S,4S)(3S,4S) or (S)(3S,4S)(3R,4R) or (S)(3R,4R)(3S,4S) or (S)(3R,4R)(3R,4R) N-[5-chloro-1-(2,2-difluorocyclopropyl)-1H-pyrazol-4-yl]-7-[3-fluoro-1-(4-methoxyoxolan-3-yl)piperidin-4-yl]-6-methylquinazolin-2-amine]  8.22
11. Cc1c(Nc2ncc3cc(Cl)c(C4CCN(C[C@@H](O)c5c(F)cccc5F)CC4)cc3n2)cnn1C1CC1 [Ex-4.209, (1S)-2-(4-{6-chloro-2-[(1-cyclopropyl-5-methyl-1H-pyrazol-4-yl)amino]quinazolin-7-yl}piperidin-1-yl)-1-(2,6-difluorophenyl)ethan-1-ol]  8.16

In the case of `Cc1cc(Nc2ncc3cc(Cl)c([C@@H]4CCN(C5COC5)C[C@H]4F)cc3n2)sn1` (single isomer, unassigned) [Ex-4.50, (3S,4S) or (3R,4R) 6-chloro-7-[3-fluoro-1-(oxetan-3-yl)piperidin-4-yl]-N-(3-methyl-1,2-thiazol-5-yl)quinazolin-2-amine], the “LRRK2 pIC50” value is reported as >9.20.
For `CO[C@H]1COC[C@H]1N1CCC(c2cc3nc(Nc4cnn(C5CC5)c4C)ncc3cc2Cl)CC1` (single isomer, unassigned) [Ex-7.5, (3S,4S) or (3R,4R) 6-chloro-N-(1-cyclopropyl-5-methyl-1H-pyrazol-4-yl)-7-[1-(4-methoxyoxolan-3-yl)piperidin-4-yl]quinazolin-2-amine], the “LRRK2 pIC50” value was >9.20.
With `Cc1c(Nc2ncc3cc(Cl)c([C@H]4CCN(C5CCCC5O)C[C@@H]4F)cc3n2)cnn1C1CC1` (single isomer, unassigned) [Ex-4.160, (1S,2R)(3S,4S) or (1R,2S)(3S,4S) or (1R,2R)(3S,4S) or (1S,2S)(3S,4S) or (1S,2R)(3R,4R) or (1R,2S)(3R,4R) or (1R,2R)(3R,4R) or (1S,2S)(3R,4R) 2-(4-{6-chloro-2-[(1-cyclopropyl-5-methyl-1H-pyrazol-4-yl)amino]quinazolin-7-yl}-3-fluoropiperidin-1-yl)cyclopentan-1-ol] the “LRRK2 pIC50” value was >9.20.
With `Cc1cc2cnc(Nc3cnn(C4CC4(F)F)c3C)nc2cc1C1CCN([C@H]2COC[C@H]2O)CC1` (single isomer, unassigned) [Ex-4.141, (R)(3S,4S) or (S)(3S,4S) or (R)(3R,4R) or (S)(3R,4R) 4-[4-(2-{[1-(2,2-difluorocyclopropyl)-5-methyl-1H-pyrazol-4-yl]amino}-6-methylquinazolin-7-yl)piperidin-1-yl]oxolan-3-ol] the “LRRK2 pIC50” value was >9.20.
`CC1(N2CCC(c3cc4nc(Nc5cnn(CC(F)F)c5Cl)ncc4cc3Cl)CC2)COC1` [Ex-4.98, 6-chloro-N-[5-chloro-1-(2,2-difluoroethyl)-1H-pyrazol-4-yl]-7-[1-(3-methyloxetan-3-yl)piperidin-4-yl]quinazolin-2-amine] was tested, and the “LRRK2 pIC50” value was >9.20.
With `N#CCCN1CCC(c2cc3nc(Nc4cnn(CC(F)F)c4Cl)ncc3cc2Cl)CC1` [Ex-4.95, 3-[4-(6-chloro-2-{[5-chloro-1-(2,2-difluoroethyl)-1H-pyrazol-4-yl]amino}quinazolin-7-yl)piperidin-1-yl]propanenitrile] the “LRRK2 pIC50” value was >9.20.

same assay, conditions: G2019S LRRK2, 134 μM ATP (Km ATP), mean values; read-out: LRRK2 pIC50 (converted)

First: CC(C)(O)Cn1ncc(Nc2ncc3cc(Cl)c(C4CCN(C5CCOC5)CC4)cc3n2)c1Cl (single isomer, unassigned) [Ex-4.77, (S) or (R) 1-[5-chloro-4-({6-chloro-7-[1-(oxolan-3-yl)piperidin-4-yl]quinazolin-2-yl}amino)-1H-pyrazol-1-yl]-2-methylpropan-2-ol]
Second: CC1(C)CC(N2CCC(c3cc4nc(Nc5cnn(C6CC6)c5Cl)ncc4cc3Cl)CC2)CO1 (single isomer, unassigned) [Ex-4.116, (R) or (S) 6-chloro-N-(5-chloro-1-cyclopropyl-1H-pyrazol-4-yl)-7-(1-(5,5-dimethyltetrahydrofuran-3-yl)piperidin-4-yl)quinazolin-2-amine]
The IC50 of the first is 2.5-fold lower: 1.82 nM for the first, 4.47 nM for the second.

Going from `CC1(N2CCC(n3ncc(Nc4ncc5cc(Cl)c(C6CC67CCC7)cc5n4)c3Cl)CC2)COC1` (single isomer, unassigned) [Ex-2.9, (S) or (R) 6-chloro-N-{5-chloro-1-[1-(3-methyloxetan-3-yl)piperidin-4-yl]-1H-pyrazol-4-yl}-7-(spiro[2.3]hexan-1-yl)quinazolin-2-amine] to `CC1(N2CC3(CC(n4cc(Nc5ncc6cc(Cl)c(C7CC78CC8)cc6n5)cn4)C3)C2)COC1` (single isomer, unassigned) [Ex-2.7, (S) or (R) 6-chloro-N-{1-[2-(3-methyloxetan-3-yl)-2-azaspiro[3.3]heptan-6-yl]-1H-pyrazol-4-yl}-7-(spiro[2.2]pentan-1-yl)quinazolin-2-amine], the IC50 falls from 36.3 nM to 0.813 nM (45-fold).

`CC(C)(O)Cn1ncc(Nc2ncc3cc(Cl)c(C4CCN(C5CCOC5)CC4)cc3n2)c1Cl` (single isomer, unassigned) [Ex-4.79, (S) or (R) 1-[5-chloro-4-({6-chloro-7-[1-(oxolan-3-yl)piperidin-4-yl]quinazolin-2-yl}amino)-1H-pyrazol-1-yl]-2-methylpropan-2-ol] and `CC1(C)CC(N2CCC(c3cc4nc(Nc5cnn(C6CC6)c5Cl)ncc4cc3Cl)CC2)CO1` (single isomer, unassigned) [Ex-4.117, (R) or (S) 6-chloro-N-(5-chloro-1-cyclopropyl-1H-pyrazol-4-yl)-7-(1-(5,5-dimethyltetrahydrofuran-3-yl)piperidin-4-yl)quinazolin-2-amine] cannot be ordered by IC50: < 0.631 nM for the first, < 0.631 nM for the second.

With `Cc1c(Nc2ncc3cc(Cl)c(C4CCN(CC(O)c5ccc(C#N)cc5)CC4)cc3n2)cnn1C1CC1` (single isomer, unassigned) [Ex-4.226, (S) or (R) 4-[2-(4-{6-chloro-2-[(1-cyclopropyl-5-methyl-1H-pyrazol-4-yl)amino]quinazolin-7-yl}piperidin-1-yl)-1-hydroxyethyl]benzonitrile] the IC50 was 3.72 nM.

Reference: patent publication US12540131B2 (Merck Sharp & Dohme LLC, priority 2019, dated 2026)
